# According to patent US12187727B2, “Methods for antagonizing a melanocortin 4 receptor” (Pfizer Inc., priority 2020, dated 2025):
# Target: human Melanocortin-4 receptor (MC4R) (Homo sapiens (Human), UniProt P32245)
# Experiment: Functional in vitro MC4R antagonist potency assay (cAMP HTRF in CHO cells)
# Type: cell-based
# Conditions: cAMP HTRF in CHO cells expressing human MC4R, 200 nM aMSH; Kb by Leff-Dougall equation; geometric mean; read-out: Kb (nM) Antagonist geometric
# Protocol: Example BB. Functional In Vitro MC4R Antagonist Potency Assay
# The functional in vitro antagonist potency for test compounds was determined by monitoring intracellular cyclic adenosine monophosphate (cAMP) levels in Chinese hamster ovary (CHO—) cells stably expressing the human Melanocortin-4 receptor (MC4R). Following agonist activation, human MC4R associates with the G-protein complex causing the Gα subunit to exchange bound GDP for GTP, followed by dissociation of the Ga-GTP complex. The activated Gα subunit can couple to downstream effectors to regulate the levels of second messengers or cAMP within the cell. Thereby, determination of intracellular cAMP levels allows for pharmacological characterization. Intracellular cAMP levels are quantitated using a homogenous assay utilizing the Homogeneous Time-Resolved Fluorescence (HTRF) technology from CisBio. The method is a competitive immunoassay between native cAMP produced by cells and the cAMP labelled with the acceptor dye, d2. The two entities then compete for binding to a monoclonal anti-cAMP antibody labeled with cryptate. The specific signal is inversely proportional to the concentration of cAMP in the cells.
# Test compounds were solubilized to 30 mM in 100% dimethyl sulfoxide (DMSO) and stored. […] The final compound concentration range in the assay was 400 nM to […], with a final DMSO concentration of 0.1%.
# (95% O2: 5% CO2) overnight, with micro-clime lids (Labcyte, Cat No. LLS-0310). […] Cells were incubated with compound for 30 minutes at 37° C. (95% O2: 5% CO2) before addition of 5 μL EC80, agonist stimulation (200 nM α-melanocyte stimulating hormone, aMSH, Bachem) and another 30-minute incubation at 37° C. (95% O2: 5% CO2). Intracellular cAMP levels were quantified as per Cisbio's protocol (5 uL of D2 and then 5 uL Cryptate, incubated for 1-2 hours at room temperature).
# Data expressed as nM cAMP were then normalized to control wells using Activity Base (IDBS). Zero percent effect (ZPE) was defined as nM of cAMP generated from ECK, agonist stimulation (200 nM aMSH). In the absence of an antagonist control compound, one hundred percent effect (HPE) was defined as nM of cAMP generated from assay buffer/vehicle only.
# Chain of human Melanocortin-4 receptor (MC4R) (P32245 whole entry): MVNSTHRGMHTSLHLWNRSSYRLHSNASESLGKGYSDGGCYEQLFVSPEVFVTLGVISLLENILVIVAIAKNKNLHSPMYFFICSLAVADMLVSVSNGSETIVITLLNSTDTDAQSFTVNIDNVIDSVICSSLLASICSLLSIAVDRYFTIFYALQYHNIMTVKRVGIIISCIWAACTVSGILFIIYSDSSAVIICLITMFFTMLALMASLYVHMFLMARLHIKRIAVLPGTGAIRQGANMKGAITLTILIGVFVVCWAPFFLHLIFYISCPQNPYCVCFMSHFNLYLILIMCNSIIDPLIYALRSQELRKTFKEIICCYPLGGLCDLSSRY
row,Kb [nM],Structure (SMILES)
1,0.59,"COc1cc([C@@H](C)C(=O)N2CC[C@@]3(CCc4cc(-c5nccc(C(F)F)n5)c(C)nc4N3)C2)c(F)cn1 [Example 200, (2R)-1-{(2S)-6-[4-(difluoromethyl)pyrimidin-2-yl]-7-methyl-3,4-dihydro-1H-spiro[1,8-naphthyridine-2,3′-pyrrolidin]-1′-yl}-2-(5-fluoro-2-methoxypyridin-4-yl)propan-1-one]"

# Same assay, conditions: human MC4R in CHO cells, cAMP HTRF, 200 nM aMSH challenge; Kb from IC50 by Leff-Dougall equation; geometric mean; read-out: Kb (nM) Antagonist geometric
row,Structure (SMILES),Kb [nM]
1,"COc1cc([C@@H](C)C(=O)N2CC[C@@]3(CCc4cc(-c5cnc(C)nc5)c(C)nc4N3)C2)c(F)cn1 [Example 151, (2R)-2-(5-fluoro-2-methoxypyridin-4-yl)-1-[(2S)-7-methyl-6-(2-methylpyrimidin-5-yl)-3,4-dihydro-1H-spiro[1,8-naphthyridine-2,3′-pyrrolidin]-1′-yl]propan-1-one]",40
2,"COc1cc([C@@H](C)C(=O)N2CC[C@@]3(CCc4cc(-c5cnc(C)s5)c(C)nc4N3)C2)c(F)cn1 [Example 153, (2R)-2-(5-fluoro-2-methoxypyridin-4-yl)-1-[(2S)-7-methyl-6-(2-methyl-1,3-thiazol-5-yl)-3,4-dihydro-1H-spiro[1,8-naphthyridine-2,3′-pyrrolidin]-1′-yl]propan-1-one]",15
3,"COc1cc([C@@H](C)C(=O)N2CC[C@@]3(CCc4cc(-c5cncc(C)n5)c(C)nc4N3)C2)c(F)cn1 [Example 156, (2R)-2-(5-fluoro-2-methoxypyridin-4-yl)-1-[(2S)-7-methyl-6-(6-methylpyrazin-2-yl)-3,4-dihydro-1H-spiro[1,8-naphthyridine-2,3′-pyrrolidin]-1′-yl]propan-1-one]",20
4,"COc1cc([C@@H](C)C(=O)N2CC[C@@]3(CCc4cc(-c5cnc(C)cn5)c(C)nc4N3)C2)c(F)cn1 [Example 158, (2R)-2-(5-fluoro-2-methoxypyridin-4-yl)-1-[(2S)-7-methyl-6-(5-methylpyrazin-2-yl)-3,4-dihydro-1H-spiro[1,8-naphthyridine-2,3′-pyrrolidin]-1′-yl]propan-1-one]",23
5,"COc1cc([C@@H](C)C(=O)N2CC[C@@]3(CCc4cc(-c5nc(C(F)F)n(C6CC6)n5)c(C)nc4N3)C2)c(F)cn1 [Example 189, (2R)-1-{(2S)-6-[1-cyclopropyl-5-(difluoromethyl)-1H-1,2,4-triazol-3-yl]-7-methyl-3,4-dihydro-1H-spiro[1,8-naphthyridine-2,3′-pyrrolidin]-1′-yl}-2-(5-fluoro-2-methoxypyridin-4-yl)propan-1-one]",4.3
6,"COc1cc([C@@H](C)C(=O)N2CC[C@@]3(CCc4cc(-c5ccc(C6CC6)nn5)c(C)nc4N3)C2)c(F)cn1 [Example 199, (2R)-1-[(2S)-6-(6-cyclopropylpyridazin-3-yl)-7-methyl-3,4-dihydro-1H-spiro[1,8-naphthyridine-2,3′-pyrrolidin]-1′-yl]-2-(5-fluoro-2-methoxypyridin-4-yl)propan-1-one]",> 54

# Continued, values first:
row,Kb [nM],Structure (SMILES)
1,9.5,"COc1cc([C@@H](C)C(=O)N2CC[C@@]3(CCc4cc(-c5cnn6cccnc56)c(C)nc4N3)C2)c(F)cn1 [Example 154, (2R)-2-(5-fluoro-2-methoxypyridin-4-yl)-1-[(2S)-7-methyl-6-(pyrazolo[1,5-a]pyrimidin-3-yl)-3,4-dihydro-1H-spiro[1,8-naphthyridine-2,3′-pyrrolidin]-1′-yl]propan-1-one]"
2,> 57,"COc1cc([C@@H](C)C(=O)N2CC[C@@]3(CCc4cc(-c5nccnc5C)c(C)nc4N3)C2)c(F)cn1 [Example 164, (2R)-2-(5-fluoro-2-methoxypyridin-4-yl)-1-[(2S)-7-methyl-6-(3-methylpyrazin-2-yl)-3,4-dihydro-1H-spiro[1,8-naphthyridine-2,3′-pyrrolidin]-1′-yl]propan-1-one]"
3,14,"COc1cc([C@@H](C)C(=O)N2CC[C@@]3(CCc4cc(-c5cccc(C(F)F)n5)c(C)nc4N3)C2)c(F)cn1 [Example 181, (2R)-1-{(2S)-6-[6-(difluoromethyl)pyridin-2-yl)-7-methyl-3,4-dihydro-1H-spiro[1,8-naphthyridine-2,3′-pyrrolidin]-1′-yl}-2-(5-fluoro-2-methoxypyridin-4-yl)propan-1-one]"
4,0.086,"COc1cc([C@@H](C)C(=O)N2CC[C@@]3(CCc4cc(-c5nc(C)n(C(F)F)n5)c(C)nc4N3)C2)c(F)cn1 [Example 188, (2R)-1-{(2S)-6-[1-(difluoromethyl)-5-methyl-1H-1,2,4-triazol-3-yl]-7-methyl-3,4-dihydro-1H-spiro[1,8-naphthyridine-2,3′-pyrrolidin]-1′-yl}-2-(5-fluoro-2-methoxypyridin-4-yl)propan-1-one]"
5,8.3,"COc1cc([C@@H](C)C(=O)N2CC[C@@]3(CCc4cc(-c5cccc(OC(F)F)n5)c(C)nc4N3)C2)c(F)cn1 [Example 198, (2R)-1-{(2S)-6-[6-(difluoromethoxy)pyridin-2-yl]-7-methyl-3,4-dihydro-1H-spiro[1,8-naphthyridine-2,3′-pyrrolidin]-1′-yl}-2-(5-fluoro-2-methoxypyridin-4-yl)propan-1-one]"

# Target: hMC4R (Homo sapiens (Human), UniProt P32245)
# Experiment: In vitro binding affinity assay using hMC4R (radioligand competition binding, [125I]-(Nle4, D-Phe7)-α-MSH)
# Conditions: geometric mean, read-out: Ki (nM) geometric mean
# Protocol: Example AA. In Vitro Binding Affinity Assay Using hMC4R
# The binding affinity of test compounds at the […] (hMC4R) was assessed using a radioligand competition binding assay. […] Cell membranes were bulked and frozen until the assay was performed.
# Compounds were solubilized in 100% dimethyl sulfoxide (DMSO) to a concentration of 30 mM. A 10-point intermediate dilution series using half log dilutions was created in 100% DMSO with a top concentration of 0.03 mM. […] The final compound range in the assay was 300 nM to 0.01 nM with a final DMSO concentration of 1%. […] The exact concentration of radioligand used for each experiment was determined by liquid scintillation counting and adjusted if necessary.
# Frozen hMC4R cell membranes were thawed and Dounce homogenized. Homogenates were resuspended in assay buffer to a concentration of 2 μg per well. […] The plates were incubated for 2 hours at room temperature.
# The raw data (expressed as counts per minute) were analyzed using ActivityBase (IDBS Data Management Software). […] Equilibrium dissociation constant for inhibitor of ligand and receptor interaction (Ki) values were then calculated from the IC50 values using the Cheng-Prusoff equation: Ki=IC50/(1+([L]/Kd)), where [L] is the concentration of the radioligand used in the experiment and Kd is the affinity of the radioligand (determined in separate saturation experiments).
# Chain of hMC4R (P32245 whole entry): as above
row,Structure (SMILES),Ki [nM]
1,"Cc1ccc2c(n1)NC1(CCN(C(=O)Cc3ccc(F)cc3)C1)CC2C (single isomer, unassigned) [Example 9, 1-(4,7-dimethyl-3,4-dihydro-1H-spiro[1,8-naphthyridine-2,3′-pyrrolidin]-1′-yl)-2-(4-fluorophenyl)ethan-1-one]",380
2,"Cc1ccc2c(n1)NC1(CCN(C(=O)Cc3ccc(F)cc3)C1)CC2C (single isomer, unassigned) [Example 10, 1-(4,7-dimethyl-3,4-dihydro-1H-spiro[1,8-naphthyridine-2,3′-pyrrolidin]-1′-yl)-2-(4-fluorophenyl)ethan-1-one]",440
3,"Cc1ccc2c(n1)NC1(CCN(C(=O)Cc3ccc(F)cc3)C1)CC2C (single isomer, unassigned) [Example 11, 1-(4,7-dimethyl-3,4-dihydro-1H-spiro[1,8-naphthyridine-2,3′-pyrrolidin]-1′-yl)-2-(4-fluorophenyl)ethan-1-one]",> 2200
4,"Cc1ccc2c(n1)NC1(CCN(C(=O)Cc3ccc(F)cc3)C1)CC2C (single isomer, unassigned) [Example 12, 1-(4,7-dimethyl-3,4-dihydro-1H-spiro[1,8-naphthyridine-2,3′-pyrrolidin]-1′-yl)-2-(4-fluorophenyl)ethan-1-one]",> 2200
5,"Cc1nc2c(cc1-c1cnn(C)c1)CCC1(CCN(C(=O)Cc3ccc(F)cc3)C1)N2 (single isomer, unassigned) [Example 19, 2-(4-fluorophenyl)-1-[7-methyl-6-(1-methyl-1H-pyrazol-4-yl)-3,4-dihydro-1H-spiro[1,8-naphthyridine-2,3′-pyrrolidin]-1′-yl]ethan-1-one]",> 220
6,"Cc1nc2c(cc1-c1cnn(C)c1)CCC1(CCN(C(=O)Cc3ccc(F)cc3)C1)N2 (single isomer, unassigned) [Example 20, 2-(4-fluorophenyl)-1-[7-methyl-6-(1-methyl-1H-pyrazol-4-yl)-3,4-dihydro-1H-spiro[1,8-naphthyridine-2,3′-pyrrolidin]-1′-yl]ethan-1-one]",0.6

# More lines, now with the values ahead:
row,Ki [nM],Structure (SMILES)
1,> 200,"Cc1nc2c(cc1-c1ncccn1)CC[C@@]1(CCN(C(=O)C(C)c3ccc(OC(F)F)nc3)C1)N2 (single isomer, unassigned) [Example 5]"
2,180,"COc1cc([C@@H](C)C(=O)N2CC[C@@]3(CCc4cc(-c5ncccn5)c(C)nc4N3)C2)c(C(F)F)cn1 (single isomer, unassigned) [Example 37]"
